Measured values from US8759049B2, “Method for the production of a fermentation product from a sugar hydrolysate” (Iogen Energy Corporation, priority 2010, dated 2014).

How the values were obtained:
Assay type in all cases: cell-based
[1] = test system: bacteria that proliferated in the industrial fermentation (contaminated yeast cream); test: Bacterial plate counts of contaminated yeast cream after acid and/or chlorine dioxide treatment (lab scale, Examples 1.1 and 1.2); conditions: for reduction of bacterial population: yeast cream first lowered to pH 2.0 with sulfuric acid, 5 minutes
Description: A yeast cream (also referred to herein as a “yeast slurry”) separated from the fermentation broth and contaminated with bacteria that proliferated in the industrial fermentation was treated at 20° C. with acid alone, chlorine dioxide alone or a combination of the two. In the acid treated condition, the pH was lowered from 5.0 to 2.0 with sulfuric acid. In the chlorine dioxide treated condition, a concentrated stock of chlorine dioxide in water (10,000 ppm) was prepared by passing a mixture of chlorine and nitrogen gas through sodium chlorite columns. The resulting ClO2 gas was sparged into 4 L of cold de-ionized water until the desired concentration was reached. This chlorine dioxide solution was used to treat the yeast cream.
In the combination treatment, the yeast cream was first lowered to pH 2.0 with sulfuric acid for 5 minutes and subsequently treated with the indicated bolus dose of chlorine dioxide for 5 minutes. In cases where the pH was lowered, the yeast cream was titrated back to 5.0 with sodium hydroxide after 10 minutes and prior to plating for bacterial enumeration. The duration of acid exposure was limited to 10 minutes to match the duration of exposure for the other treatments.
Bacterial colonies were enumerated via standard plate count methods. In order to selectively plate bacterial colonies and inhibit yeast growth, tryptic soy agar plates (15 g/L pancreatic digest of casein, 5 g/L enzymatic digest of soybean meal, 5 g/L sodium chloride and 15 g/L agar) with 100 mg/L cycloheximide were used. Samples were serially diluted into sterile saline (0.9% NaCl w/v) prior to plating.
Contaminated yeast cream obtained from the fermentation of Example 1.1 was titrated to pH 2.0 with sulfuric acid, treated with various concentrations of chlorine dioxide (0, 50, 100, 150 and 200 ppm) and plated to determine the bacterial reduction at pH 2.0 as outlined above, with the exception that the temperature of the treatment was 30° C. rather than 20° C. Bacterial populations were enumerated as previously described (Example 1.1). Bacterial populations were also enumerated on a control sample that was not subjected to chlorine dioxide or pH titration.

[2] = test system: Saccharomyces cerevisiae yeast strain; test: Yeast cell counts (viability) of yeast cream after acid and/or chlorine dioxide treatment
Description: A sample of the yeast cream from Example 1.1 was plated for yeast growth after the treatments outlined therein. […] Selective yeast growth was enabled by serially diluting the cream in sterile saline (0.9% NaCl w/v) and plating on YM plates (10 g/L glucose, 5 g/L peptone, 3 g/L yeast extract, 3 g/L malt extract, 20 g/L agar) containing 34 mg/L chloramphenicol to inhibit bacterial growth.

[3] = test system: contaminated yeast cream (Saccharomyces cerevisiae yeast strain with bacterial contaminants); test: Yeast fermentation performance in lignocellulosic hydrolysate after treatment of contaminated yeast cream
Description: Yeast fermentation performance was evaluated by inoculating the contaminated control yeast, acid-treated yeast and combination acid-chlorine dioxide treated yeast creams (treated as set forth in Example 1.1) into 400 mL of lignocellulosic hydrolysate. The lignocellulosic hydrolysate was produced as set forth in Example 1.1. Prior to inoculation, the media was sparged with pure CO2 for two minutes to ensure anaerobicity. Cells were allowed to ferment at 30° C., 150 rpm until sugar exhaustion. CO2 production was monitored for the course of the fermentation and samples were taken for dry cell weight and HPLC analysis.
The samples were analyzed for cell mass using dry cell weight (Rice et al. (1980) Am. Soc. Brew. Chem. J. 38:142-45, which is incorporated herein by reference). For the fermentability analysis, samples were taken from the bioreactors using a 10 mL syringe. From each sample, cells in 2 mL culture samples were pelleted by centrifugation and the supernatant decanted and filtered through a 0.2 μm syringe filter. Each supernatant sample was diluted with 5 mM sulfuric acid. All dilutions were analyzed for glucose, xylose, xylitol, glycerol, and ethanol content on the Agilent 1100 Series Refractive Index Detector HPLC, while acetic and lactic acid were analyzed concurrently using an Agilent 1200 Series Variable Wavelength Detector HPLC. The column used for separation was the Varian Metacarb 87H Organic Acid column, maintained at 50° C. with a 5 mM sulfuric acid mobile phase at a flow rate of 0.6 mL/min. The unit was equipped with the 1100 Series Auto-sampler and Pumping System and controlled with the Chemstation software.

[4] = test system: bacteria contaminating yeast cream; test: Bacterial plate counts of yeast cream in industrial scale operation before and after treatment
Description: A volume of 100,000 L whole fermentation broth was separated into a beer fraction and a yeast cream after completion of the fermentation. The yeast cream was concentrated to approximately 170 g dry cell weight/L. Prior to recycle into the next fermentation batch, the yeast cream contaminated with bacteria was treated at 20° C. with acid alone (batch 1) or treated with acid in combination with chlorine dioxide (batch 2). […] Chlorine dioxide was generated in concentrated form at a nominal concentration of 2700 ppm using a system commercially available from Pureline, Palatine, Ill. In the combination treatment, the acidity of the yeast cream was first lowered to pH 2.0 (as per Example 1.1) and subsequently treated at a bolus dose of 200 ppm chlorine dioxide with a residence time of approximately 45 seconds. After treatment, the yeast cream was fed back into the fermentation.

Row | SMILES | reduction of contamination in yeast cream ([1]; 100 ppm chlorine dioxide, pH 2, 30° C.) | decrease of bacterial counts ([1]; 200 ppm chlorine dioxide, pH 2, 30° C.) | reduction of bacterial population ([1]; 200 ppm chlorine dioxide, 20° C.) | reduction of bacterial counts ([1]; 500 ppm chlorine dioxide, room temperature, as restated in Example 1.2 (see FIG. 2)) [fold] | reduction of bacterial population ([1]; 500 ppm chlorine dioxide, 20° C.) | effect of increasing chlorine dioxide dose on bacterial populations ([1]; pH 5.0, 0, 200 and 500 ppm, 20° C., no acid) | effect of increasing chlorine dioxide dose on fermentation yeast populations ([2]; 0, 200, 500 ppm, regardless of the pH of the treatment (pH 5 or pH 2)) | viability of the fermentation yeast culture ([2]; combination of acid (pH 2) and chlorine dioxide 200 and 500 ppm, 20° C.) | xylose consumption rate in lignocellulosic hydrolysate ([3]; combination acid-chlorine dioxide treatment (pH 2, 200 and 500 ppm) versus untreated control, change greater than with acid alone) | ethanol yield ([3]; combination acid-chlorine dioxide treatment versus untreated control, change greater than with acid alone) | decrease of bacterial contamination counts ([4]; pH 2.0 with sulfuric acid then 200 ppm chlorine dioxide, about 45 seconds, 20° C., industrial scale (batch 2)) | reduction of bacterial population by acid alone (pH control) ([1]; pH 2.0, no chlorine dioxide, 30° C.) | reduction of bacterial population by lowering the pH alone ([1]; pH 2.0 with sulfuric acid, 0 ppm chlorine dioxide, 20° C., 10 minutes) | viability of the fermentation yeast culture ([2]; acid treatment alone, pH 2, 20° C.) | ethanol yield ([3]; acid treatment alone (pH 2) versus untreated control) | xylose consumption rate in lignocellulosic hydrolysate ([3]; acid treatment alone (pH 2) versus untreated control, equivalent cell concentrations, 30° C.) | reduction of bacterial contamination counts ([4]; sulfuric acid alone to pH 2.0, 20° C., industrial scale (batch 1))
1 | [O][Cl+][O-] [chlorine dioxide] | 10^2 CFU/mL | greater than 10^5 CFU/mL | 10^2 CFU/mL | 100 | 10^3 CFU/mL | negligible effect | negligible effect | not affected | relative decrease | increase | 10^4 CFU/mL |  |  |  |  |  | 
2 | O=S(=O)(O)O [sulfuric acid] |  |  |  |  |  |  |  |  |  |  |  | did not reduce | does not significantly reduce | not affected | increase | relative decrease | 10^2 CFU/mL
